Literature values in patent US20040101555A1, “Method for stable and controlled delivery of (—)-hydroxycitric acid” (priority 2002, published 2004).

How the values were obtained:
[1] = over a three week period; higher dosage, alone
[2] = single large oral dose or two divided oral doses totaling one fourth of the single dose; high-sugar diet

O=C([O-])CC(O)(C(=O)[O-])C(O)C(=O)[O-].[K+].[K+].[K+] (stereo not drawn) [potassium (−)-hydroxycitirate, potassium (−)-hydroxycitrate]
average weight loss [1]: 3 pounds per week

O=C(O)CC(O)(C(=O)O)C(O)C(=O)O (single isomer, unassigned; (-)) [HCA, (−)-Hydroxycitric acid]
reduction in food consumption [2]: ≥ 10%
